Source: PubChem BioAssay (NCI)
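96-well plates; 48 h exposure; 5 concentrations. Endpoints by linear interpolation between flanking doses. Not reached: highest tested concentration assigned. GI50 marks 50% less growth. TGI denotes the concentration required for complete inhibition of growth.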

Tests used:
Test in all cases: DTP human tumour cell line panel, 48 h
786-0 renal = tested on: 786-0 renal
A498 renal = tested on: A498 renal
A549 NSCLC = tested on: A549 NSCLC
ACHN renal = tested on: ACHN renal
BT-549 breast = tested on: BT-549 breast
CAKI-1 renal = tested on: CAKI-1 renal
CCRF-CEM leukemia = tested on: CCRF-CEM leukemia
COLO 205 colon = tested on: COLO 205 colon
DU-145 prostate = tested on: DU-145 prostate
EKVX NSCLC = tested on: EKVX NSCLC
HCT-116 colon = tested on: HCT-116 colon
HCT-15 colon = tested on: HCT-15 colon
HL-60(TB) leukemia = tested on: HL-60(TB) leukemia
HOP-62 NSCLC = tested on: HOP-62 NSCLC
HOP-92 NSCLC = tested on: HOP-92 NSCLC
HS 578T breast = tested on: HS 578T breast
HT29 colon = tested on: HT29 colon
IGROV1 ovarian = tested on: IGROV1 ovarian
K-562 leukemia = tested on: K-562 leukemia
KM12 colon = tested on: KM12 colon
LOX IMVI melanoma = tested on: LOX IMVI melanoma
M14 melanoma = tested on: M14 melanoma
MALME-3M melanoma = tested on: MALME-3M melanoma
MCF7 breast = tested on: MCF7 breast
MDA-MB-231 breast = tested on: MDA-MB-231 breast
MDA-MB-435 = tested on: MDA-MB-435
NCI-H226 lung = tested on: NCI-H226 lung

O=S(=O)(Nc1ccc(-c2nc(-c3cccc(O)c3)c(-c3ccnc(Br)c3)[nH]2)cc1)c1ccccc1
GI50 (786-0 renal): 2.51 µM | TGI (786-0 renal): 7.48 µM | GI50 (A498 renal): 0.364 µM | TGI (A498 renal): 3.67 µM | GI50 (A549 NSCLC): 3 µM | TGI (A549 NSCLC): 33.1 µM | GI50 (ACHN renal): 2.55 µM | TGI (ACHN renal): 6.96 µM | GI50 (BT-549 breast): 2.49 µM | TGI (BT-549 breast): 6.76 µM | GI50 (CAKI-1 renal): 2.15 µM | TGI (CAKI-1 renal): 7.51 µM | GI50 (CCRF-CEM leukemia): 1.91 µM | TGI (CCRF-CEM leukemia): > 100 µM | GI50 (COLO 205 colon): 2.42 µM | TGI (COLO 205 colon): 6.81 µM | GI50 (DU-145 prostate): 3.24 µM | TGI (DU-145 prostate): 10.9 µM | GI50 (EKVX NSCLC): 2.55 µM | TGI (EKVX NSCLC): 8.09 µM | GI50 (HCT-116 colon): 2.43 µM | TGI (HCT-116 colon): 7.16 µM | GI50 (HCT-15 colon): 1.97 µM | TGI (HCT-15 colon): 4.76 µM | GI50 (HL-60(TB) leukemia): 2.44 µM | TGI (HL-60(TB) leukemia): 6.46 µM | GI50 (HOP-62 NSCLC): 2.42 µM | TGI (HOP-62 NSCLC): 6.43 µM | GI50 (HOP-92 NSCLC): 1.69 µM | TGI (HOP-92 NSCLC): 4.9 µM | GI50 (HS 578T breast): 1.5 µM | TGI (HS 578T breast): 4.39 µM | GI50 (HT29 colon): 3.17 µM | TGI (HT29 colon): 18.3 µM | GI50 (IGROV1 ovarian): 2.88 µM | TGI (IGROV1 ovarian): 11.3 µM | GI50 (K-562 leukemia): 2.27 µM | TGI (K-562 leukemia): > 100 µM | GI50 (KM12 colon): 2.32 µM | TGI (KM12 colon): 5.99 µM | GI50 (LOX IMVI melanoma): 1.74 µM | TGI (LOX IMVI melanoma): 3.29 µM | GI50 (M14 melanoma): 2.5 µM | TGI (M14 melanoma): 8.55 µM | GI50 (MALME-3M melanoma): 2.1 µM | TGI (MALME-3M melanoma): 6.89 µM | GI50 (MCF7 breast): 2.3 µM | TGI (MCF7 breast): 7.3 µM | GI50 (MDA-MB-231 breast): 2.71 µM | TGI (MDA-MB-231 breast): 11.7 µM | GI50 (MDA-MB-435): 2.2 µM | TGI (MDA-MB-435): 6.54 µM | GI50 (NCI-H226 lung): 2.25 µM | TGI (NCI-H226 lung): 7.27 µM
